Our source for the IC50 values is patent US12655160B2, “KRAS G12D inhibitors” (Mirati Therapeutics, Inc., priority 2020, dated 2026).

Structures are written as SMILES. Counter-ions that a name gives are not always drawn.

Usually IC50 stands for the concentration that inhibits the measured activity by half.

In the test the target is KRas G12D (Homo sapiens, UniProt P01116, G12D). In words: KRas G12D Binding Assay (TR-FRET displacement of labeled tracer). Details: corresponding to amino acids 1:169, produced at Array BioPharma Inc; biotin (biotinylated). The note with it: TR-FRET displacement of Cy5 labelled tracer, Biotinylated GDP-loaded KRAS G12D (amino acids 1:169), 60 minute incubation at 22° C. As for the experimental part: This Example illustrates that exemplary compounds of the present invention bind to KRas G12D and are capable of displacing a labeled tracer ligand occupying the KRas G12D binding site. The ability of a compound to bind to KRAS G12D was measured using a TR-FRET displacement assay. Biotinylated GDP-loaded recombinant human KRAS G12D (corresponding to amino acids 1:169, produced at Array BioPharma Inc.) was incubated with a custom-made Cy5 labelled tracer, europium labelled streptavidin and compound (2% DMSO final) in buffer (50 mM HEPES [pH 7.5], 5 mM MgCl2, 0.005% Tween-20 & 1 mM DTT). After a 60 minute incubation at 22° C., the reaction was measured using a PerkinElmer EnVision multimode plate reader via TR-FRET dual wavelength detection, and the percent of control (POC) calculated using a ratiometric emission factor. […] The POC values were fit to a 4-parameter logistic curve and the IC50 value was determined as the concentration where the curve crosses 50 POC.
KRas G12D, sequence (P01116 1-169 isoform P01116-2 G12D): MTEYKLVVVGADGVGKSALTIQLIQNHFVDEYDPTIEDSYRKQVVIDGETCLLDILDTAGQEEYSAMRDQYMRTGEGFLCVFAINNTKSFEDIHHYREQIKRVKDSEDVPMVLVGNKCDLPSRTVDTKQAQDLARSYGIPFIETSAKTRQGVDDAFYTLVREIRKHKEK
Background: TR-FRET usually uses a lanthanide donor and a delayed reading to cut background.
On to `CC(C)c1ccccc1-c1ncc2c(NCC3(N(C)C)CCC3)nc(OCC34CCCN3CCC4)nc2c1F` [Example 9, N-((1-(dimethylamino)cyclobutyl)methyl)-8-fluoro-7-(2-isopropylphenyl)-2-((tetrahydro-1H-pyrrolizin-7a(5H)-yl)methoxy)pyrido[4,3-d]pyrimidin-4-amine bis(2,2,2-trifluoroacetate)], for which the IC50 was found to be 2170 nM.

`CN(CC1(N(C)C)CCC1)c1nc(OC[C@@]23CCCN2C[C@H](F)C3)nc2c(F)c(-c3cc(O)cc4ccccc34)ncc12` [Example 28] came in with an IC50 of 609 nM.

In turn, `NC1(CNc2nc(OCC34CCCN3CCC4)nc3c(F)c(-c4cccc5cccc(F)c45)ncc23)CCC1` [Example 60, N-((1-aminocyclobutyl)methyl)-8-fluoro-7-(8-fluoronaphthalen-1-yl)-2-((hexahydro-1H-pyrrolizin-7a-yl)methoxy)pyrido[4,3-d]pyrimidin-4-amine] displayed an IC50 of 2120 nM.

Turning to `Oc1cc(-c2ncc3c(NC[C@]45C[C@H]4CCN5)nc(OC[C@@]45CCCN4C[C@H](F)C5)nc3c2F)c2ccccc2c1` [Example 40, 4-(4-((((1S,5R)-2-azabicyclo[3.1.0]hexan-1-yl)methyl)amino)-8-fluoro-2-(((2R,7aS)-2-fluorotetrahydro-1H-pyrrolizin-7a(5H)-yl)methoxy)pyrido[4,3-d]pyrimidin-7-yl)naphthalen-2-ol bis(2,2,2-trifluoroacetate)], the IC50 was 5150 nM.

Regarding `CNC1(CNc2nc(OCC34CCCN3CCC4)nc3c(F)c(-c4cccc5cccc(F)c45)ncc23)CCC1` [Example 59, 8-fluoro-7-(8-fluoronaphthalen-1-yl)-2-((hexahydro-1H-pyrrolizin-7a-yl)methoxy)-N-((1-(methylamino)cyclobutyl)methyl)pyrido[4,3-d]pyrimidin-4-amine], the IC50 is 1030 nM.

`CN(C)C(C)(C)CNc1nc(OCC23CCCN2CCC3)nc2c(F)c(-c3cccc4cccc(Cl)c34)ncc12` [Example 55, N^1-(7-(8-chloronaphthalen-1-yl)-8-fluoro-2-((hexahydro-1H-pyrrolizin-7a-yl)methoxy)pyrido[4,3-d]pyrimidin-4-yl)-N^2,N^2,2-trimethylpropane-1,2-diamine] yielded an IC50 of 938 nM.

For `Oc1cc(-c2ncc3c(NCC4(O)CNC4)nc(OC[C@@]45CCCN4C[C@H](F)C5)nc3c2F)c2ccccc2c1` [Example 38, 3-(((8-fluoro-2-(((2R,7aS)-2-fluorotetrahydro-1H-pyrrolizin-7a(5H)-yl)methoxy)-7-(3-hydroxynaphthalen-1-yl)pyrido[4,3-d]pyrimidin-4-yl)amino)methyl)azetidin-3-ol bis(2,2,2-trifluoroacetate)], the IC50 was determined as 389 nM.

`Cc1cc2[nH]ncc2c(-c2ncc3c(NCC4(N(C)C)CCC4)nc(OC[C@@]45CCCN4C[C@H](F)C5)nc3c2F)c1Cl` [Example 12, 7-(5-chloro-6-methyl-1H-indazol-4-yl)-N-((1-(dimethylamino)cyclobutyl)methyl)-8-fluoro-2-(((2R,7aS)-2-fluorotetrahydro-1H-pyrrolizin-7a(5H)-yl)methoxy)pyrido[4,3-d]pyrimidin-4-amine bis(2,2,2-trifluoroacetate)] came in with an IC50 of 100 nM.

The compound `CN(C)C1(CNc2nc(OCC34CCCN3CCC4)nc3c(F)c(-c4cccc5cccc(F)c45)ncc23)CCCC1` [Example 61, N-((1-(dimethylamino)cyclopentyl)methyl)-8-fluoro-7-(8-fluoronaphthalen-1-yl)-2-((hexahydro-1H-pyrrolizin-7a-yl)methoxy)pyrido[4,3-d]pyrimidin-4-amine] registered an IC50 of 480 nM.

Consider `CN(C)CCNc1nc(OC[C@@]23CCCN2C[C@H](F)C3)nc2c(F)c(-c3cc(O)cc4ccccc34)ncc12` (racemic) [Example 39, 4-(4-((2-(dimethylamino)ethyl)amino)-8-fluoro-2-(((2S,7aR)-2-fluorotetrahydro-1H-pyrrolizin-7a(5H)-yl)methoxy)pyrido[4,3-d]pyrimidin-7-yl)naphthalen-2-ol bis(2,2,2-trifluoroacetate)], for which the IC50 was 521 nM.

Turning to `CN(C)C1(CNc2nc(OC[C@]34CCCN3[C@@H](COC(=O)N3CCCC3)CC4)nc3c(F)c(-c4cccc5cccc(Cl)c45)ncc23)CCC1` [Example 49, ((3R,7aR)-7a-(((7-(8-chloronaphthalen-1-yl)-4-(((1-(dimethylamino)cyclobutyl)methyl)amino)-8-fluoropyrido[4,3-d]pyrimidin-2-yl)oxy)methyl)hexahydro-1H-pyrrolizin-3-yl)methyl pyrrolidine-1-carboxylate], the IC50 was found to be 232 nM.

Compound `CCc1cccc2cc(O)cc(-c3ncc4c(NCC5(N(C)C)CCCC5)nc(OC[C@@]56CCCN5C[C@H](F)C6)nc4c3F)c12` [Example 34, 4-(4-(((1-(dimethylamino)cyclopentyl)methyl)amino)-8-fluoro-2-(((2R,7aS)-2-fluorotetrahydro-1H-pyrrolizin-7a(5H)-yl)methoxy)pyrido[4,3-d]pyrimidin-7-yl)-5-ethylnaphthalen-2-ol dihydrochloride] gave an IC50 of 1.1 nM.

Consider `Cc1c(Cl)cc2[nH]ncc2c1-c1ncc2c(NCC3(N(C)C)CCC3)nc(OC[C@@]34CCCN3C[C@H](F)C4)nc2c1F` [Example 13, 7-(6-chloro-5-methyl-1H-indazol-4-yl)-N-((1-(dimethylamino)cyclobutyl)methyl)-8-fluoro-2-(((2R,7aS)-2-fluorotetrahydro-1H-pyrrolizin-7a(5H)-yl)methoxy)pyrido[4,3-d]pyrimidin-4-amine bis(2,2,2-trifluoroacetate)], for which the IC50 is 165 nM.

For the compound `CN1CCC[C@H]1COc1nc(NC2C3CNCC32)c2cnc(-c3cc(O)cc4ccccc34)c(F)c2n1` (stereo partly drawn) [Example 5, 4-(4-((3-azabicyclo[3.1.0]hexan-6-yl)amino)-8-fluoro-2-(((S)-1-methylpyrrolidin-2-yl)methoxy)pyrido[4,3-d]pyrimidin-7-yl)naphthalen-2-ol bis(2,2,2-trifluoroacetate)], the IC50 was found to be 2260 nM.

Turning to `CN(C)C1(CNc2nc(OC[C@@]34CCCN3C[C@H](F)C4)nc3c(F)c(-c4cc(O)cc5ccccc45)ncc23)CCCCC1` [Example 30], the IC50 was determined as 1580 nM.

Take `C=C(C)c1cccc2cccc(-c3ncc4c(NCC5(N(C)C)CCC5)nc(OCC56CCCN5C[C@H](F)C6)nc4c3F)c12` (mixture of isomers) [Example 24, N-((1-(dimethylamino)cyclobutyl)methyl)-8-fluoro-2-(((2S,7aR)-2-fluorotetrahydro-1H-pyrrolizin-7a(5H)-yl)methoxy)-7-(8-(prop-1-en-2-yl)naphthalen-1-yl)pyrido[4,3-d]pyrimidin-4-amine]: the IC50 was found to be 954 nM.

On to `CN(C)C1(CNc2nc(OC[C@@]34CCCN3C[C@H](F)C4)nc3c(F)c(-c4cc(O)cc5ccccc45)ncc23)CC1` [Example 6, 4-(4-(((1-(dimethylamino)cyclopropyl)methyl)amino)-8-fluoro-2-(((2R,7aS)-2-fluorotetrahydro-1H-pyrrolizin-7a(5H)-yl)methoxy)pyrido[4,3-d]pyrimidin-7-yl)naphthalen-2-bis(2,2,2-trifluoroacetate)], for which the IC50 came out at 117 nM.

Turning to `CC(C)c1c(Cl)cccc1-c1ncc2c(NCC3(N(C)C)CCC3)nc(OCC34CCCN3CCC4)nc2c1F` [Example 47, 7-(3-chloro-2-isopropylphenyl)-N-((1-(dimethylamino)cyclobutyl)methyl)-8-fluoro-2-((tetrahydro-1H-pyrrolizin-7a(5H)-yl)methoxy)pyrido[4,3-d]pyrimidin-4-amine], the IC50 stood at 513 nM.

Take `CN(C)C1(CNc2nc(OCC34CCCN3CCC4)nc3c(F)c(-c4cccc5cccc(F)c45)ncc23)CCOCC1` [Example 53, N-((4-(dimethylamino)tetrahydro-2H-pyran-4-yl)methyl)-8-fluoro-7-(8-fluoronaphthalen-1-yl)-2-((hexahydro-1H-pyrrolizin-7a-yl)methoxy)pyrido[4,3-d]pyrimidin-4-amine]: the IC50 was determined as 7160 nM.

Compound `C[C@H]1CNC[C@@H]1Nc1nc(OCC23CCCN2CCC3)nc2c(F)c(-c3cc(O)cc4ccccc34)ncc12` [Example 19, 4-(8-fluoro-4-(((3R,4S)-4-methylpyrrolidin-3-yl)amino)-2-((tetrahydro-1H-pyrrolizin-7a(5H)-yl)methoxy)pyrido[4,3-d]pyrimidin-7-yl)naphthalen-2-ol] yielded an IC50 of 245 nM.

For `CN(C)C1(CNc2nc(OCCc3nccn3C)nc3c(F)c(-c4cc(O)cc5ccccc45)ncc23)CCC1` [Example 31], the half-maximal inhibitory concentration (IC50) came to 857 nM.

For the compound `CN(C)C(C)(C)CNc1nc(OC[C@]23CCCN2C[C@@H](F)C3)nc2c(F)c(-c3cc(O)cc4ccccc34)ncc12` [Example 42, 4-(4-((2-(dimethylamino)-2-methylpropyl)amino)-8-fluoro-2-(((2S,7aR)-2-fluorotetrahydro-1H-pyrrolizin-7a(5H)-yl)methoxy)pyrido[4,3-d]pyrimidin-7-yl)naphthalen-2-ol bis(2,2,2-trifluoroacetate)], the IC50 came out at 211 nM.

Regarding `CC(C)c1c(Cl)cccc1-c1ncc2c(NCC3(N(C)C)CCC3)nc(OC[C@@]34CCCN3C[C@H](F)C4)nc2c1F` [Example 48, 7-(3-chloro-2-isopropylphenyl)-N-((1-(dimethylamino)cyclobutyl)methyl)-8-fluoro-2-(((2R,7aS)-2-fluorotetrahydro-1H-pyrrolizin-7a(5H)-yl)methoxy)pyrido[4,3-d]pyrimidin-4-amine], the IC50 was found to be 1080 nM.
